Reference: paper PMC11224403, “Des-acyl ghrelin reduces alcohol intake and alcohol-induced reward in rodents” (Translational Psychiatry, 2024)
No end group written: not given here.

Legend:
CB1 receptor = assay: Aquoscreen receptor activity assay, CB1; type: cell-based, human; conditions: 60 µM JWH-018, also at 7.5 µM; luminescence
male mice = assay: Locomotor activity test, alcohol-induced stimulation and DAG per se, mice; type: in vivo, NMRI mice
Source text: (§1) Male and female Rcc Han Wistar rats (8–12 weeks old at arrival; Envigo, Horst, Netherlands) were used for the alcohol drinking and locomotor activity experiments as they drink alcohol to intoxicating levels. For in vivo microdialysis studies male Wistar rats (Charles River, Calco, Italy) were used as they display robust dopamine levels in NAc shell after alcohol injection. […] All rodents were allowed to habituate to the animal facility at least one week before they entered an experiment. […] The sample sizes of each experiment were based on previous experience in which statistical significance has been detected. The person who conducted the experiments, and analyzed the collected data was aware of the treatment allocation. Only preset exclusion criteria were used when analyzing the data obtained in attempts to exclude confounding factors in analyzing data. In the alcohol drinking experiments leaking bottles and low alcohol consumption (<3.0 g/kg for males; <3.5 g/kg for females) were preset exclusion criteria. The preset exclusion criterion in the ex vivo HPLC-EC, ELISA, and recombinant cell line experiments was contamination of the sample. Misplaced probes, technical difficulties, and damages to the surgery area were preset exclusion criteria for the in vivo microdialysis experiment. Intra-cage male aggression was the preset exclusion criterion for the locomotor activity and CPP experiments. To minimize tentative confounding factors, the order of treatments was stratified, with treatments being mixed for each animal cage and for each apparatus used as well as balancing the alcohol intake between future treatment groups.
Alcohol was in the behavioral and neurochemical tests injected (intraperitoneally, IP) 5 min before the test.
Locomotor activity tests were conducted in ventilated and dim-lit (4 lux) open field arenas (420 × 420 × 200 mm; Med Associates Inc; Georgia, Vermont, USA). Infra-red beams detected distance traveled, number of jumps, vertical counts, average velocity, stereotypic counts, number of inner zone entries, and time spent in the inner/outer zones of each animal.
In the first test, after 60 min of habituation, male (n = 24) or female (n = 24) rats were injected with vehicle or DAG (0.5, 1.0, or 2.0 mg/kg). 15 min later the activity was monitored for another 60 min. In the second locomotor activity experiment, male mice (n = 32) were allowed to habituate for 60 min. After that, they were injected with vehicle or DAG (0.25, 0.5, or 1.0 mg/kg). After 15 min the activity was monitored for another 60 min.
Therefore, male mice were (n = 32) injected with DAG (1.0 mg/kg) or vehicle 15 min before alcohol or vehicle. The activity registration started 5 min later and was recorded for an additional 60 min. Identical locomotor activity experiments were conducted in new male mice (n = 32), where a lower dose of DAG (0.5 mg/kg) was combined with alcohol.
The data from drinking experiments were analyzed by unpaired t-test or repeated two-way ANOVA. A two-tailed unpaired t-test analyzed the ELISA, ex vivo HPLC-EC, and cFOS data. In addition, the Pearson test correlated the serum levels and the mean values of alcohol intake in rats. A one-way ANOVA with Bonferroni post hoc tests and unpaired t-test analyzed the locomotor activity and CPP data, respectively. The in vivo microdialysis experiments were evaluated by a repeated two-way ANOVA followed by the Bonferroni post hoc test.

dopamine in NAc shell = assay: In vivo microdialysis, dopamine release in NAc shell; parameters: species or system Wistar rats; conditions: male rats (methods), alcohol 2 g/kg IP, n = 8 per group
Source text: as §1, with “groups. […]” for “groups.”
The data from drinking experiments were analyzed by unpaired t-test or repeated two-way ANOVA. A two-tailed unpaired t-test analyzed the ELISA, ex vivo HPLC-EC, and cFOS data. […] A one-way ANOVA with Bonferroni post hoc tests and unpaired t-test analyzed the locomotor activity and CPP data, respectively. The in vivo microdialysis experiments were evaluated by a repeated two-way ANOVA followed by the Bonferroni post hoc test.

[1] = test system: human transporter of dopamine (DAT); assay: Transporter inhibition in recombinant cell line (neurotransmitter transporter uptake assay), DAT; type: cell-based; conditions: cocaine at such concentration (12.5 µM and 6.25 µM); CHO-K1 cells, 3 h, fluorescence
NET = assay: Transporter inhibition in recombinant cell line, NET; type: cell-based, human; conditions: cocaine at 12.5 µM and 6.25 µM (top concentration 50 µM); 3 h, fluorescence
SERT = assay: Transporter inhibition in recombinant cell line, SERT; type: cell-based, human; conditions: cocaine at 12.5 µM and 6.25 µM (top concentration 50 µM); 3 h, fluorescence
[2] = test system: high alcohol-consuming mice; conditions: central infusion, ref [47]; cited from earlier work
[3] = test system: memory function via hippocampal mechanisms; conditions: ref [50], [51]; cited from earlier work
[4] = test system: alcohol-related responses; conditions: preclinical and clinical studies, ref [6–18]; cited from earlier work
Source text: Alcohol use disorder (AUD) is a major public health problem with high morbidity and mortality. Its development is complex and the dopaminergic neurons from the ventral tegmental area (VTA) to the nucleus accumbens (NAc) have gained extra interest as they mediate alcohol-induced reward (for review see [2, 3]). Various biological systems participate in the ability of alcohol to interact with these dopamine neurons, and gut-brain peptides have been implied as important modulators (for review see [4]). One of these peptides is ghrelin (i.e., acyl-ghrelin, the acylated form of ghrelin [ ...

CCCCCn1cc(C(=O)c2cccc3ccccc23)c2ccccc21 [JWH-018]
effect on target receptor CB1 (CB1 receptor): full target receptor inhibition

CCO [alcohol]
locomotor stimulation by alcohol (male mice; alcohol 1.75 g/kg IP (experiment with DAG 0.5 mg/kg)): hyperlocomotion after alcohol (P = 0.0225)
locomotor stimulation by alcohol (male mice; alcohol 1.75 g/kg IP vs vehicle, n = 8 per group (experiment with DAG 1 mg/kg)): caused a locomotor simulation (P = 0.0136)
dopamine in NAc shell, alcohol vs vehicle (dopamine in NAc shell): elevated dopamine in NAc shell (80 min P < 0.001, 160 min P = 0.0011, 180 min P = 0.0037, 200 min P < 0.0001)

COC(=O)[C@H]1[C@@H](OC(=O)c2ccccc2)C[C@@H]2CC[C@H]1N2C [cocaine]
inhibition of DAT, share of full transporter inhibition [1]: 70–80%
inhibition of NET (NET): full NET and SERT inhibition at 12.5 µM and 6.25 µM
inhibition of SERT (SERT): full NET and SERT inhibition at 12.5 µM and 6.25 µM

LEAP2: recently discovered inverse GHSR agonist (MTPFWRGVSLRPIGASCRDDSECITRLCRKRRCSLSVAQE; ends and bridges not checked; cysteine pairing not given here; UniProt Q969E1 38-77, looked up)
alcohol intake [2]: reduces alcohol intake in high alcohol-consuming mice after its central infusion

ghrelin (GSSFLSPEHQRVQQRKESKKPPAKLQPR; ends and bridges not checked; also: octanoylated, position not given here; UniProt Q9UBU3 24-51, looked up) [orexigenic peptide, the acylated form of ghrelin]
memory function [3]: enhance memory function via hippocampal mechanisms
alcohol-related responses [4]: enhances
